In test [1] the test system is parental HEK-293 cells. Briefly: FLIPR calcium mobilization assay, parental (non-transfected) HEK-293 cells. The test is classed as cell-based. The following applies: wild type (parental, non-transfected) HEK-293 cells; Fluo-3. The procedure:
(§1) A functional assay was performed with FLIPR (Fluorescent Imaging Plate Reader, Molecular Devices) using the fluorescent calcium indicator Fluo-3 (Molecular Probes) on a 96 well platform. HEK-293 cells, either expressing the receptor or wild type cells, were loaded with Fluo-3 as follows. Stable HEK-293 clones expressing rat and human MAS receptor or parental cells were plated at a density of 10,000 cells/well in a 96 well plate. On the day of the experiment, the MAS receptor cells were loaded with fluorescent solution (Dulbecco's modified medium with 10% fetal bovine serum containing 4 μM Fluo-3 and 20% pluronic acid). The cells were incubated at 37° C. for one hour in a humidified chamber. Following the incubation step, cells were washed five times in Hanks' with 20 mM Hepes and 0.1% BSA (pH 7.4). The cells were analyzed using the FLIPR system to measure the mobilization of intracellular calcium in response to different compounds.
(Calcium flux is commonly read through the fluorescence of an indicator in the cells.)

Test [2] relates to MAS receptor. Briefly: FLIPR calcium mobilization assay, HEK-293 cells expressing MAS receptor. The format is cell-based, rat and human. The following applies: HEK-293 cells expressing the clone MAS receptor; Fluo-3. As for the experimental part: HEK-293 cells were transfected with a mammalian expression construct coding for the rat and human MAS receptor (pcDNA 3.1 vector, Invitrogen) using the Superfect reagent (Qiagen). A stable receptor pool of MAS receptor was developed by applying a selection marker (G418, 0.9 mg/ml) and the cells were maintained in this selection medium. The presence of mRNA specific for clone MAS receptor was assessed by Northern blot analysis and by the reverse transcriptase polymerase chain reaction (RT-PCR).
as §1

For test [3] the following is noted: non-thermal and mechanical analgesia, administered ICV; cited from earlier work.
The test system of test [4] is mouse peritoneal macrophages. The following applies: administered to mice; not inhibited by naloxone; cited from earlier work.

Ends that are not written are not given here.

With “YGGFLRRIRPKLKWDNQ-COOH or NH2 (not fully specified; printed as YGGFLRRIRPKLKWDNQ-COOH or NH2) [Dynorphin A-NH2, C-terminal amide analogue of Dynorphin A]”, the figures for the “calcium response (FLIPR signal)” value in test [1] and in test [2] were “not in the wild type cells” and “consistently elicited signals”, respectively.

For “YGGFLRRIRPKLKWDNQ-COOH (YGGFLRRIRPKLKWDNQ-OH) [Dynorphin A]”, the “calcium response (FLIPR signal)” value in test [1] is listed as “not in the wild type cells”; in test [2], “consistently elicited signals”. The analgesia result in test [3] is on record as “moderately effective”. Besides, in test [4], the phagocytosis result is on record as “enhanced phagocytosis”.

Take “Dynorphin A 1-13: analogue (fragment 1-13) of Dynorphin A (YGGFLRRIRPKLK; Dynorphin A(1-13); UniProt P01213 207-219, looked up, fragment)”: the “calcium response (FLIPR signal)” value in test [1] is listed as “not in the wild type cells”; in test [2], “consistently elicited signals”.

Values taken from US7078177B2, “Method of assaying for agonists or antagonist of Dynorphin A binding to the MAS receptor” (AstraZeneca AB, priority 2000, dated 2006).
